From patent publication US7011972B2, “Fusion polypeptide comprising two ligand binding domains” (The Scripps Research Institute, priority 2000, dated 2006)
“Also recorded” adds a separate entry of the source.

Legend:
hPR (aa645-914) LBD = biological target: T1, hPR (aa645-914) LBD (Homo sapiens, UniProt P06401); assay: Ligand crossreactivity on PR fusion, 10×C7-TATA-luc reporter; type: cell-based; settings: PR LBD fusion proteins
T1 construct: The human PR truncated LBD (aa645-914) was amplified from PAPCMVGL914VPc′-SV; expressed in transfected cells; host or cells: HeLa cells, effector plasmid in pcDNA3.1(+)Zeo
T1 sequence (P06401 645-914): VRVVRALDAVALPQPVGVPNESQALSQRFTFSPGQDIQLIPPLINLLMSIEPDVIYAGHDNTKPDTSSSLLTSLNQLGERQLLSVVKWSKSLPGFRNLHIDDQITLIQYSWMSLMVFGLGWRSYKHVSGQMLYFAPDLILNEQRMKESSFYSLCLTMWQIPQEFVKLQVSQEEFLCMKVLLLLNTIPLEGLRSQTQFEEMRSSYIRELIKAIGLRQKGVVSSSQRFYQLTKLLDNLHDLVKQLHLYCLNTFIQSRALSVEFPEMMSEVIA
Description: (§1) Luciferase and βP-gal reporter assays.
The chimeric transcriptional regulators were then tested for their ability to regulate the 10×C7-TATA-luc reporter plasmid in a hormone dependent manner. 10×C7-TATA-luc contains ten C7 binding sites [5′-GCG TGG GCG-3′] spaced by 5 nucleotides, and a TATA box, upstream of the firefly luciferase coding region. […] RU486 stimulated the activity of VP16-C7-PR 26-fold, while 4-OHT led to a 43-fold activation of VP16-C7-ER. […] The presence of a NLS in either position was not only not required, but even undesirable, since it led to an increased basal (i.e. hormone-independent) activity of the fusion constructs, presumably through increased nuclear localization. Thus, the hPR (aa645-914) and mER (aa281-599, G525R) LBDs are able to confer hormone-dependence onto the zinc finger protein C7.

[1] = test system: 10×N1-TATA-β-gal reporter (with B3-PR-VP16 and N1-ER-VP64) in HeLa cells; assay: Dual reporter assay, β-gal; type: cell-based; settings: HeLa cells expressing B3-PR-VP16 and N1-ER-VP64
Description: (§2) RU486- and Tamoxifen-inducible promoter constructs. 10×C7-TATA, 10×B3-TATA, and 10×N1-TATA fragments were assembled from two pairs of complementary oligonucleotides each and cloned into Sac1-Xma1 linearized pGL3-Basic (Promega), upstream of the firefly luciferase coding region, creating the plasmids 10×C7-TATA-luc, 10×B3-TATA-luc, and 10×N1-TATA-luc. To generate the 10×N1-TATA-lacZ reporter construct, the lacZ coding region was excised from pβgal-Basic (Clontech) and used to replace the luciferase coding region of 10×N1-TATA-luc via Hind3-BamH1 digestion. Luciferase and βP-gal reporter assays. […] Concomitant regulation of multiple promoters. Zinc finger technology has made a large repertoire of DNA binding specificities available for use in protein engineering [[…]., and Barbas, C. F., III (1998) Proc. Natl. Acad. Sci. USA 95, 14628-14633; […]., and Barbas, C. F., III (1999) Proc. Natl. Acad. Sci. USA 96, 2758-2763; […]., and Barbas, C. F., III (2000) Proc. Natl. Acad. Sci. USA 97, 1495-1500]. The availability of different steroid hormone receptor-derived regulatory domains [Littlewood, T. D., Hancock, […]., Parker, M. G., and Evan, G. I. (1995) Nucl. […] The transfected cells were treated with either RU486 or 4-OHT and the luciferase and β-gal activities were monitored.

[2] = test system: 10×B3-TATA-luc reporter (with B3-PR-VP16 and N1-ER-VP64) in HeLa cells; assay: Dual reporter assay, luciferase; type: cell-based; settings: HeLa cells expressing B3-PR-VP16 and N1-ER-VP64
Description: as §2

ER-VP64 (mouse) = ER-VP64 (mouse) (UniProt P19785); assay: cell-based or functional assay
[3] = test system: E2C-TATA-luciferase reporter plasmid carrying a single E2C binding site; assay: Luciferase reporter assay, E2C-TATA-luc in HeLa cells; type: cell-based; settings: 4-OHT
Description: A, structure of ER fusion proteins. E2C, six finger protein; L, flexible peptide linker. B, fusion proteins with a single ER-LBD bind as dimers. HeLa cells were cotransfected with a C7-ER-VP64 expression vector, and the indicated TATA luciferase reporter plasmids carrying either one or two C7 binding sites. 24 h after transfection, cells were either left untreated (−), or 100 nM 4-OHT was added (+). Luciferase activity in total cell extracts was measured 48 h after transfection. Each bar represents the mean value (+/−SD) of duplicate measurements. […] C, D, regulation of transcription through a single binding site by fusion proteins with two ER-LBDs. HeLa cells were cotransfected with the indicated expression vectors and the E2C-TATA-luciferase reporter plasmid, carrying a single E2C binding site upstream of a TATA box. 4-OHT induction and measurement of luciferase activity was carried out as described in B.
A, structure of single-chain RXR/EcR fusion proteins. B, regulation of transcription through a single binding site. HeLa cells were cotransfected with the indicated expression vectors and the E2C-TATA-luciferase reporter plasmid, carrying a single E2C binding site. 24 h after transfection, cells were either left untreated (−), or 5 μM Ponasterone A was added (+). Luciferase activity in total cell extracts was measured 48 h after transfection.
as §1
To overcome these problems, we produced two types of ER-based chimeric regulators, designed to be capable of regulating gene expression through a single binding site in a hormone-dependent manner. In the first strategy, a heterodimeric regulator was generated consisting of the engineered zinc finger protein E2C fused to an ER LBD, as well as an ER LBD fused to a VP64 activation domain (FIG. 2A). […] Addition of hormone led to a 3- to 5-fold stimulation of luciferase expression, indicating the formation of functional heterodimers. […]

## 4-hydroxytamoxifen [4-OHT]
hPR (aa645-914) LBD
  crossreactivity between 4-OHT and PR: no detectable crossreactivity; also recorded: no detectable crossreaction
[1]
  β-gal reporter gene activity (10×N1-TATA-β-gal): efficiently activated
[2]
  luciferase expression (10×B3-TATA-luc): did not affect

## CC#C[C@]1(O)CC[C@H]2[C@@H]3CCC4=CC(=O)CCC4=C3[C@@H](c3ccc(N(C)C)cc3)C[C@@]21C [RU486, 11β-(4-dimethylaminophenyl)-17β-hydroxy-17α-propinyl-4,9-e stradiene-3-one]
[1]
  β-gal reporter gene activity (10×N1-TATA-β-gal): no effect

## E2C-ER (from UniProt P19785 281-599)
ER-VP64 (mouse)
  luciferase expression from the E2C-TATA-luc reporter (single E2C site) in HeLa cells, stimulation by 4-OHT: 3 to 5 fold

## E2C-scER/18-VP64: single-chain fusion of E2C, two ER LBDs joined by 18 amino acid linker, VP64
[3]
  hormone-dependent activation of E2C-TATA-luc reporter: efficiently activated

## E2C-scER/30-VP64: single-chain fusion of E2C, two ER LBDs joined by 30 amino acid linker, VP64
[3]
  hormone-dependent activation of E2C-TATA-luc reporter: efficiently activated

B1: ER-VP64: ER LBD fused to a VP64 activation domain (protein)
chain: RNEMGASGDMRAANLWPSPLVIKHTKKNSPALSLTADQMVSALLDAEPPMIYSEYDPSRPFSEASMMGLLTNLADRELVHMINWAKRVPGFGDLNLHDQVHLLECAWLEILMIGLVWRSMEHPGKLLFAPNLLLDRNQGKCVEGMVEIFDMLLATSSRFRMMNLQGEEFVCLKSIILLNSGVYTFLSSTLKSLEEKDHIHRVLDKITDTLIHLMAKAGLTLQQQHRRLAQLLLILSHIRHMSNKRMEHLYNMKCKNVVPLYDLLLEMLDAHRLHAPASRMGVPPEEPSQTQLATTSSTSAHSLQTYYIPPEAEGFPNTI
modifications: left off: large carriers
[3]
  hormone-dependent activation of E2C-TATA-luc reporter: inactive
